According to patent US6458781B1, “Substituted diarylalkyl amides as calcium channel antagonists” (priority 1998, dated 2002):
Where a name gives a salt, the structure may show the parent alone. Read-outs that look alike come from different tables or passages of the source.

Tests used:
[1] = tested on: sound-induced tonic convulsions in DBA/2 mice; assay: Audiogenic seizure model in DBA/2 mice; format: in vivo; details: Mus musculus, protected/tested, read-out: Number of Mice Protected From Tonic Convulsions (converted); for responders at 10 mg/kg: 10 mg/Kg IV; for responders at 30 mg/kg: 30 mg/Kg IV
Experimental: Audiogenic Seizure Model in DBA/2 Mice
A compound of the present invention was dissolved in water using 10% (weight/volume) Emulphor (GAF Corp., Wayne, N.J.) surfactant. Substances were administered by intravenous injection into the retro-orbital venous sinus of male mice (3-4 weeks old, Jackson Laboratories, Bar Harbour, Me.). All testing was preformed 15 minutes or 45 minutes after drug injection. Immediately before anticonvulsant testing, mice were placed upon a wire mesh, 4 inches square suspended from a steel rod. The square was slowly inverted through 180 degrees and mice observed for 30 seconds. Any mouse falling from the wire mesh was scored as ataxic.
Mice were placed into an enclosed acrylic plastic chamber (21 cm height, approximately 30 cm diameter) with a high-frequency speaker (4 cm diameter) in the center of the top lid. An audio signal generator (Protek model B-810) was used to produce a continuous sinusoidal tone that Was swept linearly in frequency between 8 kHz and 16 kHz once each 10 msec. The average sound pressure level (SPL) during stimulation was approximately 100 dB at the floor of the chamber. Mice were placed within the chamber and allowed to acclimatize for 1 minute. DBA/2 mice in the vehicle-treated group responded to the sound stimulus (applied until tonic extension occurred, or for a maximum of 60 sec) with a characteristic seizure sequence consisting of wild running followed by clonic seizures, and later by tonic extension, and finally by respiratory arrest and death in 80% or more of the mice. In vehicle-treated mice, the entire sequence of seizures to respiratory arrest lasts approximately 15-20 seconds.
The incidence of all the seizure phases in the drug-treated and vehicle-treated mice was recorded, and the occurrence of tonic seizures were used for calculating anticonvulsant ED50 values by probit analysis. Mice were used only once for testing at each time and dose point.

[2] = target: T1, L-type calcium channels in A10 cells (Rattus norvegicus, UniProt P22002); assay: L-type Ca2+ channel blocking potency in A10 cells (FLIPR); format: cell-based; details: read-out: FLPA10 IC50
T1 construct: which endogenously expresses L-type calcium channels; host or cells: A10 rat embryonic thoracic aorta smooth muscle cells
T1 sequence (P22002 whole entry): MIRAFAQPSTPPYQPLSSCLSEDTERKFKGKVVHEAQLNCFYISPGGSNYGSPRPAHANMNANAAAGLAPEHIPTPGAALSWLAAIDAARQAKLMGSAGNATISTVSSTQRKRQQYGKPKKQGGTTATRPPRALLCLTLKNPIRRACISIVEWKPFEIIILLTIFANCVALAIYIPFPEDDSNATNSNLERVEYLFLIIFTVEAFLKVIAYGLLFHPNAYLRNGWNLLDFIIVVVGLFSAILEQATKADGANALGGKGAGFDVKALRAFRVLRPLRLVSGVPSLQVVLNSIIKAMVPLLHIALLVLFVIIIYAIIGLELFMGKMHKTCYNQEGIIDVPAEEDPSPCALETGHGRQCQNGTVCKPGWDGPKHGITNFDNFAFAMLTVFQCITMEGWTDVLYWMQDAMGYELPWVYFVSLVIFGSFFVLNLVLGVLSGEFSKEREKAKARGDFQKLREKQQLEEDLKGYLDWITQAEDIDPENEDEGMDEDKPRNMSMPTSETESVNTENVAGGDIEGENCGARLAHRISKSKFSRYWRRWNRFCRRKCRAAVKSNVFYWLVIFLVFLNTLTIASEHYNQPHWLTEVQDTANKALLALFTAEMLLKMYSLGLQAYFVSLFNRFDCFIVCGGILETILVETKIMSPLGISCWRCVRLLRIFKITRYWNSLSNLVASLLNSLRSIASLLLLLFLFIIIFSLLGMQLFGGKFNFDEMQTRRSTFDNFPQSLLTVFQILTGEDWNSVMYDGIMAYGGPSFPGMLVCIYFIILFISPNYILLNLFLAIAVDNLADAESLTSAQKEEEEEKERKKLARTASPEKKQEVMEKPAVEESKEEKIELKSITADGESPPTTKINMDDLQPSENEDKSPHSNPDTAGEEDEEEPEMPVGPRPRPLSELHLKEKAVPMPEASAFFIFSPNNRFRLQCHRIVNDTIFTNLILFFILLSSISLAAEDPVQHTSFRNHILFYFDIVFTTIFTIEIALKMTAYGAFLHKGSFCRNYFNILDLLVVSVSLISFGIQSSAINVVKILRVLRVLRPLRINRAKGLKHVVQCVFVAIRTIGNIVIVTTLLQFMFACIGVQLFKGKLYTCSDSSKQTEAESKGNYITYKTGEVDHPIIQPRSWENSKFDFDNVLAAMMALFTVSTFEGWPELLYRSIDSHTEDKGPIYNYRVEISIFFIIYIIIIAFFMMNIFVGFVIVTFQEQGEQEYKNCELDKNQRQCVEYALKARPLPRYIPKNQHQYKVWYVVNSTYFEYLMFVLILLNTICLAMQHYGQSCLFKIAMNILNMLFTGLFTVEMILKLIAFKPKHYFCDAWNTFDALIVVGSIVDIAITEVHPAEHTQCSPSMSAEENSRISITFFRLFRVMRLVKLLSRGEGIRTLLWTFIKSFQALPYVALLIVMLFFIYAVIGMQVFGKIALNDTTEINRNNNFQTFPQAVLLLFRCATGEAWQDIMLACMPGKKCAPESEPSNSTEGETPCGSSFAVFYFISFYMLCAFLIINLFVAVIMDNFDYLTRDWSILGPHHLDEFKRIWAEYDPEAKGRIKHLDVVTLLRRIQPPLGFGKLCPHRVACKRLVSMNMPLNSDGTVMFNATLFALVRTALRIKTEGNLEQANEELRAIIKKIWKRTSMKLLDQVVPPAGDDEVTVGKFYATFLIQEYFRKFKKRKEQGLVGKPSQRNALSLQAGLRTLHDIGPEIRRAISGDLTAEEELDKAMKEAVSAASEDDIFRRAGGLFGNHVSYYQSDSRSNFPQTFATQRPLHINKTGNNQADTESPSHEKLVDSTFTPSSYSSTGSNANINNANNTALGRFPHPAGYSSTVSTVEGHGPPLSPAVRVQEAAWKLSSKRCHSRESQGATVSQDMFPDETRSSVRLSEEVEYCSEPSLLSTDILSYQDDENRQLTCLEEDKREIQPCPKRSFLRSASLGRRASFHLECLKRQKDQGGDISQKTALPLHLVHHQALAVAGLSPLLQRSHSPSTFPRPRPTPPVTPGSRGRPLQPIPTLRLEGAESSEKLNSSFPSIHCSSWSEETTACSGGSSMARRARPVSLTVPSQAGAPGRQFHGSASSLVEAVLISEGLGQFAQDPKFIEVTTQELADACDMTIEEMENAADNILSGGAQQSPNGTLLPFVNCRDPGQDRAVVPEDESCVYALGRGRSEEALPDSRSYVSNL
T1 sequence (P54290 25-944 partner limits assumed): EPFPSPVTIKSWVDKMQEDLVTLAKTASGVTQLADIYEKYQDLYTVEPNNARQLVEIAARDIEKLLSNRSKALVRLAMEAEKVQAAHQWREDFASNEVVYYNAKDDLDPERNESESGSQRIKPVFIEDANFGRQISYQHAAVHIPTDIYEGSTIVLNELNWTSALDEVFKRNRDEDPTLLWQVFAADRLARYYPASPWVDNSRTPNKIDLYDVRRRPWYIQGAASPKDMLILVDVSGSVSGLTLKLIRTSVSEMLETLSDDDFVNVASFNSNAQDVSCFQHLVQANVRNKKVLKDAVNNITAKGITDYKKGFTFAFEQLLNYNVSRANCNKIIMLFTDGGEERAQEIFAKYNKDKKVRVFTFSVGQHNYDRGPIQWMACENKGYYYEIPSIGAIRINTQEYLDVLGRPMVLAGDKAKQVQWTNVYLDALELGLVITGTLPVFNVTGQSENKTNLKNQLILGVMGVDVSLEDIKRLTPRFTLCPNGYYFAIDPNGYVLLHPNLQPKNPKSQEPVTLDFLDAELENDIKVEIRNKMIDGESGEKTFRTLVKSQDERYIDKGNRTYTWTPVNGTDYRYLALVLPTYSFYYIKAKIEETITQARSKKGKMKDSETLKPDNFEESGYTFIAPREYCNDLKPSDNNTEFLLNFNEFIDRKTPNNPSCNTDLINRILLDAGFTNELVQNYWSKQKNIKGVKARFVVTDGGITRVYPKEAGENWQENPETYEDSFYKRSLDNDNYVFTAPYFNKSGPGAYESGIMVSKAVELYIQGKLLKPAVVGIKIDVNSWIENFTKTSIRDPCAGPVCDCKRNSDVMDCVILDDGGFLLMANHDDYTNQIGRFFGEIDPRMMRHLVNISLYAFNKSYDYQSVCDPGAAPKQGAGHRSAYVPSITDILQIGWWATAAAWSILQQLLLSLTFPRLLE
T1 sequence (P54290 945-1091 partner limits assumed): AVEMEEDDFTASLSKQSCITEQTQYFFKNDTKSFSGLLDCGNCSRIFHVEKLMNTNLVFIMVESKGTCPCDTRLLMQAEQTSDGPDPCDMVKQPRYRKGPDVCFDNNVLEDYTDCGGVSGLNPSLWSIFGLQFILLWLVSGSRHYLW
T1 sequence (P54287 whole entry partner): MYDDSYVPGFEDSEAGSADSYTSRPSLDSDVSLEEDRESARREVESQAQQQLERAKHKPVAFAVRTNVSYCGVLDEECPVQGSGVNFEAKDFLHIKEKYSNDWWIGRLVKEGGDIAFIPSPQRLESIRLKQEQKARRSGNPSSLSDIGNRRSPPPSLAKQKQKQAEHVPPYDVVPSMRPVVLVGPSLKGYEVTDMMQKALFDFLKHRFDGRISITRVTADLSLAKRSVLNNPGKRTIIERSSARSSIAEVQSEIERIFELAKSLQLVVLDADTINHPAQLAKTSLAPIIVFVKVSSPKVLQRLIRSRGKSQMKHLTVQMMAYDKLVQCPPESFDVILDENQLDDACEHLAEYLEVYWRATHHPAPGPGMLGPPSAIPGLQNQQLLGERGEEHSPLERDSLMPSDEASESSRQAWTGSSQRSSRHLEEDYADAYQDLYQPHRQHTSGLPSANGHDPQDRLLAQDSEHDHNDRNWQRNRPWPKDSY
In short: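 Rat A10 aortic smooth-muscle cells endogenously expressing L-type channels were loaded with Oregon Green BAPTA-1 and preincubated with compound for 5 min at 35 °C. Cells were then depolarized with 140 mM KCl buffer. Summed fluorescence above basal over 120 s gave % inhibition versus buffer-treated stimulated wells, with zero influx defined by 1.0×10^−6 M nitrendipine.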

[3] = target: T2, N-type calcium channels in IMR-32 cells (Homo sapiens, UniProt Q00975); assay: N-type Ca2+ channel blocking potency in IMR-32 cells using Indo-1; format: cell-based; details: for IC50: IMR-32 cells; for inhibition at 1 µM / inhibition at 10 µM: IMR-32, IMR-32 cells; for inhibition at 1 µM: read-out: IMR32 % blockage at 1 μM; for inhibition at 10 µM: read-out: IMR32 % blockage at 10 μM
T2 construct: host or cells: IMR-32 cells differentiated with dibutyryl cAMP and bromodeoxyuridine
In short: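 Differentiated IMR-32 cells loaded with Indo-1 AM were preincubated with compound and 5 μM nitrendipine (L-type block) for 10 min at 30° C in HEPES/Tris pH 7.4 HBSS with 0.5% BSA. Cells were depolarized with KCl/CaCl2, and the 400/490 nm emission ratio rise over basal was measured. IC50 came from a four-parameter logistic fit.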

[4] = tested on: electroshock-induced tonic extensor seizures in CF-1 mice; assay: Maximal electroshock testing; format: in vivo; details: protected/tested
Experimental: Maximal Electroshock Testing
In this test, four representative compounds were tested for their anticonvulsant effects using the procedure described below.
Male CF-1 mice, 20 to 28 g, from Charles River Laboratories, Portage, Mich. were used in all experiments. Groups of 10 mice each were given various intravenous doses of test compound in aqueous solution with 10% Emulphan® Surfactant in a volume of 10 mL/kg of body weight. Electroshock was delivered by corneal electrodes with 60 Hz alternating current (50 mA root-mean-squared for 0.2 seconds) using a constant-current stimulator (Wahlquist Instruments, Salt Lake City, Utah). Untreated or saline-treated mice reliably had tonic extensor seizures with rearward extension of hindlimbs more than 3 seconds. These methods are similar to those published by Krall R. L.; Penry J. K.; White B. G.; and Kupferberg H. K. Antiepileptic Drug Development II. Anticonvulsant Drug Screening, Epilepsia, 1978; 19:409-428.

[5] = tested on: Na+ channels in SCG neurons; assay: Sodium current in superior cervical ganglion neurons (whole-cell voltage clamp); format: cell-based, rat; details: at 10 μM
Experimental: (§1) Electrophysiological techniques were used to measure the effects of experimental compounds on voltage-gated Ca^2+, […] , and K^+ channels. […] Sodium and potassium channel currents were measured from acutely dissociated SCG neurons.
(§2) Dissociation of the neurons from the ganglia was accomplished using a 30 to 45 minute treatment in 0.25% trypsin, similar to methods outlined in Higgins, et al. (see Higgins D. et al. “Tissue culture of mammalian autonomic neurons.” In Banker G. and Goslin K. (Eds), Culturing Nerve Cells, Cambridge, Mass., MIT Press [1991]).
(§3) Ca^2+, Na^+, and K^+ channel currents in SCG neurons were measured using conventional single electrode whole-cell voltage-clamp techniques, outlined in Hamill et al., (see Hamill O. P. et al. “Improved patch-clamp techniques for high resolution current recordings from cells and cell-free membrane patches.”Pflugers Arch., 1981;391:85-100). For Ca^2+ channel experiments, the external bathing solution contained tetraethylammonium chloride (100 mM), choline chloride (52 mM), NaCl (15 mM), HEPES (10 mM), glucose (5.6 mM), CaCl2 (2 mM), and MgCl2 (0.8 mM), pH 7.35 with KOH; with the internal pipette solution containing cesium methane sulfonate (140 mM), EGTA (10 mM), and HEPES (10 mM), supplemented with 5 mM Mg^2+-ATP on the day of the experiment, pH 7.4 with CsOH. For Na^+ and K^+ channel experiments, the external bathing solution contained NaCl (150 mM), KCl (5 mM), MgCl2 (1.1 mM), CaCl2 (2.6 mM), Na-HEPES (10 mM), and glucose (10 mM), pH 7.4; with the internal pipette solution containing KCl (80 mM), K-gluconate (50 mM), HEPES (10 mM), and EGTA (10 mM), pH 7.4 with KOH. Experimental compounds were diluted into the external solution and applied to the soma of cells by local perfusion from large diameter (20-50 μm) glass micropipettes or from a U-tube applicator.
(§4) For Na^+ and K^+ channel currents, following the determination of the I/V relationship for each cell in control solution, currents were evoked from a holding potential between −65 and −55 mV by stepping every 10 sec to a test potential of either 0 mV for Na^+ or +50 mV for K^+ current for a duration of 35 msec. Peak inward current was measured for Na^+ and sustained current for K^+ channel currents. […] Test compounds were applied until steady-state block was achieved. Data were expressed as percent inhibition of control amplitudes for Na^+ and K^+ channel currents.

[6] = tested on: K+ channels in SCG neurons; assay: Potassium current in superior cervical ganglion neurons (whole-cell voltage clamp); format: cell-based, rat
Experimental: as §1, §2, §3, §4

[7] = target: T3, N-type Ca2+ channels in cultured superior cervical ganglion (SCG) neurons (Rattus norvegicus, UniProt Q02294); assay: Calcium current in superior cervical ganglion neurons (whole-cell voltage clamp); format: cell-based; details: for inhibition at 10 µM: read-out: SCG Ca, % blockage at 10 μM
T3 construct: from tissue
Experimental: as §1, §2, §3
After obtaining a whole-cell recording, Ca^2+ channels were elicited by stepping to test potentials between −40 and +20 mV for 120 msec from the holding potential of −90 mV to determine if the amplitude of the current and clamp control were adequate for evaluation of drug effects. Ca^2+ channel currents were evoked by stepping from a holding potentials between −65 mV and −55 mV to a test potential of +20 mV for 150 msec every 40 seconds. The amplitude of the Ca^2+ channel currents were compared before and during drug application and drug effects expressed as percent inhibition of the amplitude of control currents.

[8] = estimated from two data points, read-out: IMR32 IC50 (estimated IC50 values based on two data points)
[9] = 5 μM nitrendipine present, read-out: IMR32 IC50

Structure (SMILES) | IC50 [2] | IC50 [3, 8] | inhibition at 1 µM [3] | inhibition at 10 µM [3] | melting point | responders at 30 mg/kg ([1]; 0.25 h, 15 min posttreatment) | responders at 30 mg/kg ([1]; 0.75 h, 45 min posttreatment) | other results
CC(C)CCN(C)[C@@H](CC(C)C)C(=O)N1CCN(C(c2ccc(F)cc2)c2ccc(F)cc2)CC1 [Example 46, 1-{4-[Bis-(4-fluoro-phenyl)-methyl]-piperazin-1-yl}-4-methyl-2-[methyl-(3-methyl-butyl)-amino]-pentan-1-one dihydrochloride] | 1800 nM | 330 nM |  |  |  |  |  | responders at 10 mg/kg ([1]; 0.25 h, 15 min posttreatment): 80%; responders at 10 mg/kg ([1]; 0.75 h, 45 min posttreatment): 20%
CC(C)C[C@H](NC1CCCCC1)C(=O)N1CCN(C(c2ccc(F)cc2)c2ccc(F)cc2)CC1 [Example 38, (S)-1-{4-[Bis-(4-fluoro-phenyl)-methyl]-piperazin-1-yl}-2-cyclohexylamino-4-methyl-pentan-1-one] | 610 nM | 1200 nM |  |  |  | 80% | 20% | 
CC(C)C[C@H](NC(=O)N1CCCCCC1)C(=O)NCCCC(c1ccc(F)cc1)c1ccc(F)cc1 [Example 1, (S)-Azepane-1-carboxylic acid {1-[4,4-bis-(4-fluoro-phenyl)-butylcarbamoyl]-3-methyl-butyl}-amide] |  |  |  |  |  | 60% |  | SCG Na, % blockage at 10 μM [5]: 14% @ 10; SCG K, % blockage at 1 μM ([6]; at 1 μM): 4.3% @ 1; SCG K, % blockage at 10 μM [6]: 3% @ 10; IC50 [3, 9]: 820 nM; inhibition at 1 µM ([7]; at 1 μM, read-out: SCG Ca, % blockage at 1 μM): 17%; inhibition at 10 µM [7]: 16%
CC(C)C[C@H](NC(=O)N1CCCCCC1)C(=O)NC(c1ccccc1)c1ccccc1 [Example 3, (S)-Azepane-1-carboxylic acid [1-(benzhydryl-carbamoyl)-3-methyl-butyl]-amide] |  |  |  |  | 180 to 181 °C |  |  | SCG Na, % blockage at 10 μM [5]: 5% @ 10; SCG K, % blockage at 10 μM [6]: 48% @ 10; IC50 [3, 9]: 4400 nM; inhibition at 10 µM [7]: 33%
CC(C)C[C@@H](C(=O)N1CCN(C(c2ccc(F)cc2)c2ccc(F)cc2)CC1)N(C)C1CCCCC1 [Example 40, (S)-1-{4-[Bis-(4-fluoro-phenyl)-methyl]-piperazin-1-yl}-2-(cyclohexyl-methyl-amino)-4-methyl-pentan-1-one] | 500 nM | 700 nM |  |  |  | 0% | 0% | 
CC(C)[C@H](NC(=O)N1CCCCCC1)C(=O)NCCCC(c1ccc(F)cc1)c1ccc(F)cc1 [Example 26, (S)-Azepane-1-carboxylic acid {1-[4,4-bis-(4-fluoro-phenyl)-butylcarbamoyl]-2-methyl-propyl}-amide] | 240 nM | 840 nM |  |  | 32 to 50 °C |  |  | 
CC(C)C[C@@H](C(=O)N1CCN(C(c2ccc(F)cc2)c2ccc(F)cc2)CC1)N(Cc1ccc(OC(C)(C)C)cc1)Cc1ccc(OC(C)(C)C)cc1 [Example 57, (S)-2-[Bis-(4-tert-butoxy-benzyl)-amino]-1-{4-[bis-(4-fluoro-phenyl)-methyl]-piperazin-1-yl}-4-methyl-pentan-1-one] | > 3000 nM |  |  | 7% | 62 to 67 °C |  |  | 

Continued, in another order:

IC50 [2] | IC50 [3, 8] | inhibition at 1 µM [3] | inhibition at 10 µM [3] | melting point | Structure (SMILES) | responders at 30 mg/kg ([1]; 0.25 h, 15 min posttreatment) | responders at 30 mg/kg ([1]; 0.75 h, 45 min posttreatment) | other results
430 nM |  | 23% | 99% |  | N[C@@H](Cc1ccccc1)C(=O)N1CCN(C(c2ccc(F)cc2)c2ccc(F)cc2)CC1 [Example 52, (S)-2-Amino-1-(4-[bis-(4-fluoro-phenyl)-methyl]-piperazin-1-yl}-3-phenyl-propan-1-one] | 100% | 80% | 
 |  | 62% | 87% |  | CC(C)C[C@H](NC1CCCCC1)C(=O)NCCCC(c1ccc(F)cc1)c1ccc(F)cc1.Cl [Example 15, (S)-2-Cyclohexylamino-4-methyl-pentanoic acid [4,4-bis-(4-fluoro-phenyl)-butyl]-amide monohydrochloride] | 100% | 100% | Number of Mice Protected from Tonic Convulsions ([4]; 10 mg/Kg iv, 15 min posttreatment): 5/5; Number of Mice Protected from Tonic Convulsions ([4]; 10 mg/Kg iv, 45 min posttreatment): 2/5; Number of Mice Protected from Tonic Convulsions ([4]; 30 mg/Kg iv, 15 min posttreatment): 3/3; Number of Mice Protected from Tonic Convulsions ([4]; 30 mg/Kg iv, 45 min posttreatment): 5/5
1700 nM |  | 13% | 54% | 65 to 78 °C | CC(C)CC(NC(=O)N1CCN(C)CC1)C(=O)N1CCN(C(c2ccc(F)cc2)c2ccc(F)cc2)CC1 (stereo in doubt) [Example 47, (S)-4-Methyl-piperazine-1-carboxylic acid (1-{4-[bis-(4-fluoro-phenyl)-methyl]-piperazine-1-carbonyl}-3-methyl-butyl)-amide] |  |  | 
